In PMC5063977 (The Journal of Biological Chemistry, 2016):

Legend:
Assay type in all cases: cell-based
[1] = target: T1, RAMP2-CLR (AM1 receptor) (Homo sapiens, UniProt O60895+Q16602); test: (Ca^2+)i mobilization, HEK-293 cells, RAMP2 + CLR; details: HEK293, percentage of maximal (Ca^2+)i release with 10 μM ionomycin, mean ± S.E., n = 5
T1 construct: FLAG; expressed in transfected cells; host or cells: HEK-293 or HEK-293S cells, transient transfection, 1:1 RAMP:CLR
Method: (§1) HEK-293 cells were transfected with FuGENE 6 (Roche Applied Science) in accordance with the manufacturer's instructions using a 1:3 (w:v) DNA:FuGENE ratio and a 1:1 ratio of RAMP to CLR. […] The transfected cell lines were grown for 24–48 h prior to assaying.
(§2) Transfected HEK-293 cells were grown to confluence in black, clear bottomed, 96-well plates. […] Cells were then washed followed by the addition of 100 μl of Ca^2+-free Hanks' balanced salt solution. […] Recordings were obtained every 0.5 s for 120 s. Peak magnitude was calculated using five-point smoothing followed by correction against background fluorescence. The peak was used to generate concentration-response curves and normalized relative to 10 μM ionomycin.
(§3) Data analysis for cAMP assays was performed in GraphPad Prism 6.0f (San Diego, CA). […] These values were then used to quantify signaling bias as change in log (τ/Ka) relative to the natural cognate ligand for the respective receptor ([41]). […] Statistical differences were analyzed using one-way ANOVA or Student's t test as appropriate with post hoc Bonferroni's or Dunnett's multiple comparisons, and p < 0.05 was considered significant. […] To quantitate the ligand-dependent response in the yeast system, a strain lacking GPA1 (MMY11), grown in rich medium, was used as a standard ([72]). […]

[2] = target: T2, RAMP1-CLR (CGRP receptor) (Homo sapiens, UniProt O60894+Q16602); test: (Ca^2+)i mobilization, HEK-293 cells, RAMP1 + CLR; details: HEK293, percentage of maximal (Ca^2+)i release with 10 μM ionomycin, mean ± S.E., n = 5
T2 construct: FLAG; expressed in transfected cells; host or cells: HEK-293 or HEK-293S cells, transient transfection, 1:1 RAMP:CLR
T2 sequence (Q16602 23-461): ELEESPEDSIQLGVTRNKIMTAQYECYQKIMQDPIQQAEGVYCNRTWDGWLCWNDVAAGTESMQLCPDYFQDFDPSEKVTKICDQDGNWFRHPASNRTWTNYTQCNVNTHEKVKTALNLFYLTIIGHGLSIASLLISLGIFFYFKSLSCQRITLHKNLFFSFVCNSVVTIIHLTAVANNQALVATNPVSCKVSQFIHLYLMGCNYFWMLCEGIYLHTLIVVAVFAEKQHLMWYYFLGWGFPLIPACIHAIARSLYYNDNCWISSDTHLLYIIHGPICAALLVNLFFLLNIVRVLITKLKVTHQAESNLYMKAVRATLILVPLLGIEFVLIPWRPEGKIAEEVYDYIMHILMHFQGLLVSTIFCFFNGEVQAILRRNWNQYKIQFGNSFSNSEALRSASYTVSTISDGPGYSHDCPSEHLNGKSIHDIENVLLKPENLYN
T2 sequence (O60894 27-148): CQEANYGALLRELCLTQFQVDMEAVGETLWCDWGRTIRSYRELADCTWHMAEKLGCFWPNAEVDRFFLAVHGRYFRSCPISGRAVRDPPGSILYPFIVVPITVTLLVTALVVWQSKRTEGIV
Method: as §1, §2, §3

[3] = target: T3, RAMP3-CLR (AM2 receptor) (Homo sapiens, UniProt O60896+Q16602); test: S. cerevisiae growth assay, GPA1/Gαs chimera, RAMP3 + CLR; details: percentage of yeast strain MMY11 (lacking GPA1); 20 h; mean ± S.E., n = 8
T3 construct: FLAG; expressed in transfected cells; host or cells: HEK-293 or HEK-293S cells, transient transfection, 1:1 RAMP:CLR
T3 sequence (Q16602 23-461): as the sequence (Q16602 23-461) above
T3 sequence (O60896 24-148): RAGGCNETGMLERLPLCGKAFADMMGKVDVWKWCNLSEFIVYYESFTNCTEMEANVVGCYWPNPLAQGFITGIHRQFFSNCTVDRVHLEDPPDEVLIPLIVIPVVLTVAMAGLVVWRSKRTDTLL
Method: FIGURE 1. […] Reporter gene activity was determined following 20 h of stimulation with each ligand. Data are expressed as a percentage of the maximum response observed in yeast strain MMY11 (lacking GPA1) and are means ± S.E. of n individual data sets. […] Data were determined as statistically different from the cognate ligand for each receptor (*, p < 0.05; **, p < 0.01; ***, p < 0.001) using a one-way ANOVA with Bonferroni's post-test.
General yeast procedures were performed as described previously ([22], [24]). The human CLR was introduced into yeast cells under the control of the PGK promoter using a plasmid containing ura3 (pDT-PGK). […] Receptor signaling was measured using the yeast growth assay as described previously ([24]). […] A fluorescein signal was detected as an increase in fluorescence (excitation wavelength = 485 nm, emission wavelength = 535 nm) as a measure of growth. Different concentrations of ligand (0.01 nM–100 μM) were assayed using 96-well plates, and fluorescence was detected using a Tecan Infinite M200 microplate reader (Tecan Ultra Evolution, Reading, UK) or a Mithras LB 940 microplate reader (Berthold Technologies, Harpenden, UK) for 20 h.
Data analysis for cAMP assays was performed in GraphPad Prism 6.0f (San Diego, CA). […] To quantitate the ligand-dependent response in the yeast system, a strain lacking GPA1 (MMY11), grown in rich medium, was used as a standard ([72]). […]

T1 sequence (Q16602 23-461): as the sequence (Q16602 23-461) above
T1 sequence (O60895 43-175): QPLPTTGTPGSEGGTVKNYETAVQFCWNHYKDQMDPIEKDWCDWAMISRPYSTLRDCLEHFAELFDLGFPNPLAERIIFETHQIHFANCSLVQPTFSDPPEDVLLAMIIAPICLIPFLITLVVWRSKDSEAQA

Emax [1] | Emax [2] | Emax [3] | Compound
44.4 ± 7.1% | – | – | CSCC[C@H](NC(=O)[C@H](CC(C)C)NC(=O)[C@H](CCC(N)=O)NC(=O)[C@H](Cc1c[nH]c2ccccc12)NC(=O)[C@H](CC(C)C)NC(=O)[C@H](CCCNC(=N)N)NC(=O)[C@H](Cc1c[nH]cn1)NC(=O)[C@H](CO)NC(=O)[C@H](CC(C)C)NC(=O)[C@H](CC(N)=O)NC(=O)[C@H](CCC(N)=O)NC(=O)[C@@H](NC(=O)[C@H](CCC(N)=O)NC(=O)[C@@H]1CSSC[C@H](NC(=O)CNC(=O)[C@@H](NC(=O)[C@H](CCCNC(=N)N)NC(=O)[C@H](CC(C)C)NC(=O)[C@H](CC(C)C)NC(=O)[C@H](CCC(N)=O)NC(=O)[C@H](C)NC(=O)[C@H](CCC(N)=O)NC(=O)[C@@H](N)[C@@H](C)O)C(C)C)C(=O)N[C@@H](C(C)C)C(=O)N[C@@H](CC(C)C)C(=O)NCC(=O)N[C@@H]([C@@H](C)O)C(=O)N1)C(C)C)C(=O)NCC(=O)N1CCC[C@H]1C(=O)N[C@@H](C)C(=O)NCC(=O)N[C@@H](CCCNC(=N)N)C(=O)N[C@@H](CCC(N)=O)C(=O)N[C@@H](CC(=O)O)C(=O)N[C@@H](CO)C(=O)N[C@@H](C)C(=O)N1CCC[C@H]1C(=O)N[C@H](C(=O)N[C@@H](CC(=O)O)C(=O)N1CCC[C@H]1C(=O)N[C@@H](CO)C(=O)N[C@@H](CO)C(=O)N1CCC[C@H]1C(=O)N[C@@H](Cc1c[nH]cn1)C(=O)N[C@@H](CO)C(=O)N[C@@H](Cc1ccc(O)cc1)C(N)=O)C(C)C [AM2, adrenomedullin 2]
– | 37 ± 3.5% | 25.5 ± 3.6% | CC[C@H](C)[C@H](NC(=O)[C@H](CCC(N)=O)NC(=O)[C@H](Cc1c[nH]cn1)NC(=O)[C@H](C)NC(=O)[C@H](CC(C)C)NC(=O)[C@H](CCCCN)NC(=O)[C@H](CCC(N)=O)NC(=O)[C@@H](NC(=O)[C@@H](NC(=O)[C@@H]1CSSC[C@H](NC(=O)CNC(=O)[C@H](Cc2ccccc2)NC(=O)[C@H](CO)NC(=O)[C@H](CCCNC(=N)N)NC(=O)[C@H](CC(C)C)NC(=O)CNC(=O)[C@H](CCC(N)=O)NC(=O)[C@H](Cc2ccccc2)NC(=O)[C@H](CC(N)=O)NC(=O)[C@H](CC(N)=O)NC(=O)[C@H](CCSC)NC(=O)[C@H](CO)NC(=O)[C@H](CCC(N)=O)NC(=O)[C@H](CCCNC(=N)N)NC(=O)[C@@H](N)Cc2ccc(O)cc2)C(=O)N[C@@H](CCCNC(=N)N)C(=O)N[C@@H](Cc2ccccc2)C(=O)NCC(=O)N[C@@H]([C@@H](C)O)C(=O)N1)[C@@H](C)O)C(C)C)C(=O)N[C@@H](Cc1ccc(O)cc1)C(=O)N[C@@H](CCC(N)=O)C(=O)N[C@@H](Cc1ccccc1)C(=O)N[C@H](C(=O)N[C@@H](CC(=O)O)C(=O)N[C@@H](CCCCN)C(=O)N[C@@H](CC(=O)O)C(=O)N[C@@H](CCCCN)C(=O)N[C@@H](CC(=O)O)C(=O)N[C@@H](CC(N)=O)C(=O)N[C@H](C(=O)N[C@@H](C)C(=O)N1CCC[C@H]1C(=O)N[C@@H](CCCNC(=N)N)C(=O)N[C@@H](CO)C(=O)N[C@@H](CCCCN)C(=O)N[C@H](C(=O)N[C@@H](CO)C(=O)N1CCC[C@H]1C(=O)N[C@@H](CCC(N)=O)C(=O)NCC(=O)N[C@@H](Cc1ccc(O)cc1)C(N)=O)[C@@H](C)CC)C(C)C)[C@@H](C)O [AM, adrenomedullin]
